The source of these data is patent US8247424B2, “Fredericamycin derivatives” (Zentopharm GmbH, priority 2002, dated 2012).

Converted amounts (≈) assume the structure as drawn.

Tested on in one data set: not listed separately
Nature of the data set: Water solubility of the fredericamycin derivatives. It counts as physicochemical. As to conditions: statement in the synthesis text, medium not given.
Turning to `COC1=CC(=O)c2c(O)c3c(c(O)c2C1=O)C(=O)C1(CCc2cc4cc(C(O)C(O)C(O)C(C)O)[nH]c(=O)c4c(O)c21)C3=O` [Example 2, Tri-potassium-1-desoxy-5-C-[(8R)-4′,9,9′-trihydroxy-6′-methoxy-1,1′,3′,5′,8′-pentaoxo-1,1′,2,3′,5′,6,7,8′-octahydrospiro[cyclopenta[g]isoquinoline-8,2′-cyclopenta[b]-naphthalene]-3-yl]pentitol], the “water solubility compared to fredericamycin (1)” value is on record as “significantly higher water solubility”.

The subject of another data set is 12 cancer cell lines: LCL (H460, lung), MACL (MCF7, breast), LXFL (52L, lung), LXFA (629L, lung), MEXF (462NL, melanoma), MEXF (514L, melanoma), MAXF (401NL …). Nature of the data set: Biological activity against 12 cancer cell lines, efficacy (IC70) averaged over all cell lines.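 Also: panel also covers renal lines RXF 944L and RXF 486L, uterine UXF 1138L, and prostate lines PRXF PC3M and PRXF 22RV1.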 As to conditions: averaged over all 12 cancer cell lines, 5 test concentrations. The data set is classed as cell-based.
Description: (§1) LCL (H460, lung), MACL (MCF7, breast), LXFL (52L, lung), LXFA (629L, lung), MEXF (462NL, melanoma), MEXF (514L, melanoma), MAXF (401NL, breast), RXF (944L, renal), RXF (486L, renal), UXF (1138L, uterus), PRXF (PC3M, prostate), PRXF (22RV1).
For orientation: IC70 means the point of the concentration-response curve where the effect stands at 70%. Higher therefore signals a need for much substance. Turning to `COC1=CC(=O)c2c(O)c3c(c(O)c2C1=O)C(=O)[C@@]1(CCc2cc4cc(C(O)C(O)C(O)C(C)O)[nH]c(=O)c4c(O)c21)C3=O` (stereo partly drawn) [Example 1, 1-Desoxy-5-C-[(8R)-4′,9,9′-trihydroxy-6′-methoxy-1,1′,3′,5′,8′-pentaoxo-1,1′,2,3′,5′,6,7,8′-octahydrospiro[cyclopenta[g]isoquinoline-8,2′-cyclopenta[b]-naphalene]-3-yl]pentitol], the IC70 worked out at 0.1130 µg/mL (≈ 0.186 µM).
As to “(8S)-5-chloro-4′,6′,9′-trimethoxy-2-methoxy-3-[(1E,3E)-penta-1,3-dienyl]-6,7-dihydrospiro[cyclopenta[g]isoquinoline-8,2′-cyclopenta[b]-naphthalene]-1,1′,3′,5′,8′(2H)-pentone [Example 22]”, the IC70 is 0.0080 µg/mL.
Molecule `N.N.[Cl][Pt][Cl]` [cisplatin] yielded a 70% effect concentration (IC70) of 37.1020 µg/mL.
Molecule “(8S)-5-bromo-4′,9,9′-trihydroxy-6′-methoxy-1,1′,3′,5′,8′-pentaoxo-1,1′,2,3′,5′,6,7,8′-octahydrospiro[cyclopenta[g]isoquinoline-8,2′-cyclopenta[b]-naphthalene]-1,1′,3′,5′,8′(2H)-pentone [Example 13]” showed a 70% effect concentration (IC70) of 0.0050 µg/mL.
Consider `C/C=C/C=C/c1cc2cc3c(c(O)c2c(=O)[nH]1)[C@@]1(CC3)C(=O)c2c(O)c3c(c(O)c2C1=O)C(=O)C(NC)=CC3=O` [Example 265], for which the IC70 was 0.1330 µg/mL (≈ 0.247 µM).

Tested on in the next data set: not listed separately
The data set is described as above. The note with it: averaged over all 12 cancer cell lines, 5 test concentrations. The data set is classed as cell-based.
Description: as §1
For `COC1=CC(=O)c2c(O)c3c(c(O)c2C1=O)C(=O)[C@]1(CCc2cc4cc(C=NOC(C)C)[nH]c(=O)c4c(O)c21)C3=O` [Example 214, (8S)-4′,9,9′-trihydroxy-6′-methoxy-1,1′,3′,5′,8′-pentaoxo-1,1′,2,3′,5′,6,7,8′-octahydrospiro[cyclopenta[g]isoquinoline-8,2′-cyclopenta[b]-naphthalene]-3-carbaldehyde O-isopropyloxime], it took 0.022 µg/mL (≈ 0.0394 µM) to reach the 70% level (IC70).

Tested on in a further data set: not listed separately
In words: Water solubility of the fredericamycin derivatives. The data set is classed as physicochemical. As to conditions: 0.9% NaCl solution, pH 7. An excerpt: The water solubility of the various fredericamycin derivatives can be determined in a 0.9% NaCl solution with a pH of 7.
Regarding “(8S)-4′,9,9′-trihydroxy-6′-methoxy-1,1′,3′,5′,8′-pentaoxo-1,1′,2,3′,5′,6,7,8′-octahydrospiro[cyclopenta[g]isoquinoline-8,2′-cyclopenta[b]-naphthalene]-3-carbaldehyde oxime [Example 6]”, the water solubility result is on record as “dissolves well”.
Regarding `COC1=CC(=O)c2c(O)c3c(c(O)c2C1=O)C(=O)[C@]1(CCc2cc4cc(C=O)[nH]c(=O)c4c(O)c21)C3=O` [Example 3, (8S)-4′,9,9′-trihydroxy-6′-methoxy-1,1′,3′,5′,8′-pentaoxo-1,1′,2,3′,5′,6,7,8′-octahydrospiro[cyclopenta[g]isoquinoline-8,2′-cyclopenta[b]-naphthalene]-3-carbaldehyde], the water solubility result is reported as “dissolve very well”.
Still for that read-out and setting: then `COC1=CC(=O)c2c(O)c3c(c(O)c2C1=O)C(=O)C1(CCc2cc4cc(C(O)C(O)C(O)C(C)O)[nH]c(=O)c4c(O)c21)C3=O` [Example 2, Tri-potassium-1-desoxy-5-C-[(8R)-4′,9,9′-trihydroxy-6′-methoxy-1,1′,3′,5′,8′-pentaoxo-1,1′,2,3′,5′,6,7,8′-octahydrospiro[cyclopenta[g]isoquinoline-8,2′-cyclopenta[b]-naphthalene]-3-yl]pentitol], with “soluble”.
The same measure, in the same setting: the result for `COC1=CC(=O)c2c(O)c3c(c(O)c2C1=O)C(=O)[C@]1(CCc2cc4cc(/C=N/NC(=O)C[n+]5ccccc5)[nH]c(=O)c4c(O)c21)C3=O.[Cl-]` [Example 5, 1-[2-Oxo-2-((2E)-2-{[(8S)-4′,9,9′-trihydroxy-6′-methoxy-1,1′,3′,5′,8′-pentaoxo-1,1′,2,3′,5′,6,7,8′-octahydrospiro[cyclopenta[g]isoquinoline-8,2′-cyclopenta[b]-naphthalene]-3-yl]methylene}hydrazino)-ethyl]pyridinium chloride] reads “sufficiently and markedly better soluble than fredericamycin”; that for `COC1=CC(=O)c2c(O)c3c(c(O)c2C1=O)C(=O)[C@]1(CCc2cc4cc(C(=O)O)[nH]c(=O)c4c(O)c21)C3=O` [Example 11, (8S)-4′,9,9′-trihydroxy-6′-methoxy-1,1′,3′,5′,8′-pentaoxo-1,1′,2,3′,5′,6,7,8′-octahydrospiro[cyclopenta[g]isoquinoline-8,2′-cyclopenta[b]-naphthalene]-3-carboxylic acid], “sufficiently and markedly better soluble than fredericamycin”; that for `CON=Cc1cc2cc3c(c(O)c2c(=O)[nH]1)[C@@]1(CC3)C(=O)c2c(O)c3c(c(O)c2C1=O)C(=O)C(OC)=CC3=O` [Example 7, (8S)-4′,9,9′-trihydroxy-6′-methoxy-1,1′,3′,5′,8′-pentaoxo-1,1′,2,3′,5′,6,7,8′-octahydrospiro[cyclopenta[g]isoquinoline-8,2′-cyclopenta[b]-naphthalene]-3-carbaldehyde-O-methyloxime], “sufficiently and markedly better soluble than fredericamycin”.
In the case of “(8S)-5-bromo-4′,9,9′-trihydroxy-6′-methoxy-1,1′,3′,5′,8′-pentaoxo-1,1′,2,3′,5′,6,7,8′-octahydrospiro[cyclopenta[g]isoquinoline-8,2′-cyclopenta[b]-naphthalene]-1,1′,3′,5′,8′(2H)-pentone [Example 13]”, the water solubility result is reported as “soluble”.
The same measure, in the same setting: then “(8S)-4′,9,9′-trihydroxy-6′-methoxy-1,1′,3′,5′,8′-pentaoxo-1,1′,2,3′,5′,6,7,8′-octahydrospiro[cyclopenta[g]isoquinoline-8,2′-cyclopenta[b]-naphthalene]-1,1′,3′,5′,8′(2H)-pentone [Example 10]”, with “soluble”.
`COC1=CC(=O)c2c(O)c3c(c(O)c2C1=O)C(=O)[C@]1(CCc2cc4cc(C(=O)[O-])[nH]c(=O)c4c(O)c21)C3=O.[K+]` [Example 12, Potassium(8S)-4′,9,9′-trihydroxy-6′-methoxy-1,1′,3′,5′,8′-pentaoxo-1,1′,2,3′,5′,6,7,8′-octahydrospiro[cyclopenta[g]isoquinoline-8,2′-cyclopenta[b]-naphthalene]-3-carboxylate]: the water solubility result is “sufficiently and markedly better soluble than fredericamycin”.
